# Measurements: patent US9512083B2, “Histone deacetylase 6 selective inhibitors for the treatment of bone disease” (The General Hospital Corporation, priority 2012, dated 2016)
# Entries after “also recorded” stand apart in the source; their conditions may differ.
# Columns and labels:
# [1] = system: ac-α-tubulin; test: Immunohistochemistry of ac-α-tubulin in CD138+ MM patient cells; assay type: cell-based, human; conditions: treated vs control
# [2] = system: pERK, pAkt, c-fos in OCLs; test: Immunoblot of signaling pathway in OCLs; assay type: cell-based, human; conditions: OCLs differentiated 10 days, treated with Compound A and or bortezomib 24 hours
# Description: Samples were then subjected to sodium dodecyl sulfate-polyacrylamide gel electrophoresis, transferred to PVDF membrane, and immunoblotted with antibodies against pAkt, Akt, and c-fos (Cell Signaling Technology, Beverly, Mass.) or phosphorylated extracellular signal-regulated kinase (pERK). Antigen-antibody complexes were detected by enhanced chemiluminescence (Amersham, Arlington Heights, Ill.). The membrane was stripped and reprobed with antitubulin antibody to ensure equal protein loading. Films were scanned and densitometric analysis performed.
# [3] = system: osteoblasts (OBLs) differentiated from BMSCs derived from MM patients; test: Alizarin red staining of calcium deposits in osteoblasts; assay type: cell-based, human; conditions: OBLs differentiated in presence of Compound A and/or bortezomib, 23 days
# Description: To evaluate calcium deposition, osteoblasts were washed with PBS and fixed after 23 days of treatment and assayed by alizarin red staining (Alizarin red solution, Millipore) that specifically stains mineralization area. The mineralization areas were visualized using Nikon Labophot-2 microscope with 10×/0.25 lens equipped with SPOT-insight QE camera.
# The results shown in FIG. 4A “CTR alpha-mem” represent the BMSCs that have not been differentiated in OBL. The results shown in FIG. 4B “CRT OBL medium” represent the OBL without any treatment.
# [4] = system: acetyl-Histone H3; test: Immunohistochemistry of acetyl-Histone H3 in CD138+ MM patient cells; assay type: cell-based, human; conditions: treated vs control
# [5] = target: T1, Sirtuin 2 (Homo sapiens, UniProt Q8IXJ6); test: HDAC enzyme assay, Sirtuin 2; assay type: biochemical
# T1 sequence (Q8IXJ6 1-389): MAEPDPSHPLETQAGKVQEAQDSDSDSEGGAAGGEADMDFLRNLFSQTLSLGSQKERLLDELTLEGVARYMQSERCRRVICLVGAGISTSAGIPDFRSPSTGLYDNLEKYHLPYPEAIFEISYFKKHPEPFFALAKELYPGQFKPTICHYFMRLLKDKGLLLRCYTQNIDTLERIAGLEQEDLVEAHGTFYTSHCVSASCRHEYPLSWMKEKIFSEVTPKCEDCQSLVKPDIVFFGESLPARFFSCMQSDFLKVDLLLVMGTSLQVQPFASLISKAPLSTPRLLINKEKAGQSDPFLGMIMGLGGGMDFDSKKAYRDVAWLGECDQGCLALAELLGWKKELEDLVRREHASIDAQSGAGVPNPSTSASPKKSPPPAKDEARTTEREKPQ
# [6] = system: osteoclasts differentiated from MM patient bone marrow; test: PIT formation assay (bone resorption); assay type: cell-based, human; conditions: Compound A 1 μM and/or bortezomib 2.5 nM, 7 days
# Procedure: OC activity was assayed by bone resorption enumerating resorption pits. Briefly, mononuclear cells (1.8×10^6 cell/well) from MM patient bone marrow were cultured in a 24-well plate coated with a synthetic carbonate apatite (CaP) (Cosmo Bio Co., Ltd, Tokio, Japan) and stimulated with RANKL (25 ng/ml) and M-CSF (25 ng/ml). […] On day 7 the conditioned medium was removed from each well and the wells were treated with 5% sodium hypochlorite for five minutes. After washing and drying, resorption pits were photographed by light microscopy and quantified by Image J software. Each pit area assay was performed at least 3 times with BM from different donors.
# [7] = system: osteoblasts (OBLs) differentiated from BMSCs derived from MM patients; test: AlamarBlue viability assay of osteoblasts; assay type: cell-based, human; conditions: Compound A 1 μM and/or bortezomib 2.5 nM, 10-14 and 21 days
# Procedure: Alamarblue was added to the wells to a final concentration of 10% alamar blue and the plates were incubated at […] and 5% CO2 for 1 to 4 hours. The plates were read at absorbance (OD) of 530 nm and 600 nm. The delta OD was recorded and the date were plotted as percentage of control.
# The control (ctr) represents the OBL without any treatment. Cell viability was assessed by Alamarblue assay (a redox indicator that yields a colorimetric change and a fluorescent signal in a response to a metabolic activity) (Invitrogen, Carlsbad, Calif.). […] (FIG. 1A alarm blue after 14 days of differentiation in BMSC derived from patient 1, FIG. 1C alarm blue after 21 days of differentiation in BMSC derived from the same patient, FIG. 2A alarm blue after 14 days of differentiation in BMSC derived from patient 2, FIG. 2C alarm blue after 21 days of differentiation in BMSC derived from patient 2, FIG. 3A alarm blue after 10 days of differentiation in BMSC derived from patient 3).
# [8] = system: osteoclasts (OCLs) differentiated from PBMCs from MM patients; test: Osteoclastogenesis, TRAP staining; assay type: cell-based, human
# [9] = system: acetylated α-tubulin; test: Acetylation of α-tubulin in MM.1S cells; assay type: cell-based; conditions: increasing doses, 18 hours
# [10] = target: T2, Sirtuin 1 (Homo sapiens, UniProt Q96EB6); test: HDAC enzyme assay, Sirtuin 1; assay type: biochemical
# T2 sequence (Q96EB6 1-747): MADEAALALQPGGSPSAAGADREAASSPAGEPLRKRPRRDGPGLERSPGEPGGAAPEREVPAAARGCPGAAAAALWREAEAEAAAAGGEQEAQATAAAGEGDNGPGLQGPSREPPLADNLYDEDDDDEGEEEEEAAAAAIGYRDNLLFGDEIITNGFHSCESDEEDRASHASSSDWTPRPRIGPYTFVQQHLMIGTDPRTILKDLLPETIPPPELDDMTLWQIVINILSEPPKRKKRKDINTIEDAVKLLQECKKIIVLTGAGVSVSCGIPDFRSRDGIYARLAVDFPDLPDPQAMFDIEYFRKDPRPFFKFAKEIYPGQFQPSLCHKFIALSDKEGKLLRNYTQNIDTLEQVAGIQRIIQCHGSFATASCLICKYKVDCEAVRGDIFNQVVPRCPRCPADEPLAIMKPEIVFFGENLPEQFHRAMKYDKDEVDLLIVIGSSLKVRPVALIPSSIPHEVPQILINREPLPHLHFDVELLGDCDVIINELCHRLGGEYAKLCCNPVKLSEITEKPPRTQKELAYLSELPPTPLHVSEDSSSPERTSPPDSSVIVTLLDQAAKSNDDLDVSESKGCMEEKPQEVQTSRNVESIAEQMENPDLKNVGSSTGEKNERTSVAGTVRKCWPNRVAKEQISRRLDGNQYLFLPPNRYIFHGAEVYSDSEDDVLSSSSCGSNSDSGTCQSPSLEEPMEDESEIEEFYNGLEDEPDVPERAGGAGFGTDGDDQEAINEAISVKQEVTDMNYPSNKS
# [11] = system: osteoblasts (OBLs) differentiated from BMSCs derived from MM patients; test: Alkaline phosphatase (ALP) activity assay of osteoblasts; assay type: cell-based, human; conditions: Compound A 1 μM and/or bortezomib 2.5 nM, 10-14 and 21 days
# Procedure: Following the AlamarBlue cell viability assay, the wells were then washed twice with PBS fixed for 5 minutes and washed again with distilled water and Alkaline Phosphatase Yellow (pNPP) Liquid Substrate System for ELISA (sigma-aldrich) was added to the wells. The plates were read at OD of 405 nm after 5 minutes of incubation.
# (FIG. 1B ALP after 14 days of differentiation in BMSC derived from patient 1, FIG. 1D ALP after 21 days of differentiation in BMSC derived from the same patient, FIG. 2B ALP after 14 days of differentiation in BMSC derived from patient 2, FIG. 2D ALP after 21 days of differentiation in BMSC derived from patient 2, FIG. 3B ALP after 10 days of differentiation in BMSC derived from patient 3).
# [12] = system: ac-α-tubulin; test: Western blot of ac-α-tubulin in CD138+ MM patient cells; assay type: cell-based, human; conditions: 2 μM, 4 hours
# [13] = system: acetylation of lysine on Histone H3 and Histone H4; test: Acetylation of Histone H3 and H4 in MM.1S cells; assay type: cell-based; conditions: compared to SAHA
compound,measurement,setting,value
"O=C(CCCCCCNC(=O)c1cnc(N(c2ccccc2)c2ccccc2)nc1)NO [Compound A, 2-(diphenylamino)-N-(7-(hydroxyamino)-7-oxoheptyl)pyrimidine-5-carboxamide]","ac-α-tubulin, immunohistochemistry (IHC)",[1],significant increase of ac-α-tubulin was observed in treated compared to control cells
same,"pERK, pAkt and c-fos expression (immunoblot)",[2],"downregulation of pERK, pEKT and cFOS expression"
same,calcium deposits (Alizarin red staining),[3],increases calcium deposits in OBL cells
same,"acetyl-Histone H3, immunohistochemistry (IHC)",[4],without any significant increase in acetyl-Histone H3
same,IC50,[5]; Sirtuin 2,> 10 µM
same,IC50,"[5]; sirtuin 2, text (minimal activity)",> 1 µM
same,PIT formation (resorption pits),[6],significantly arrested PIT formation
same,viability of OBLs (AlamarBlue),[7],does not induce cytotoxicity on OBL cells; also recorded: does not affect the viability of osteoblasts (OBLs)
same,number of OCLs (multinucleated TRAP-positive cells) per well,"[8]; compared with bortezomib or untreated control wells, 7 and 14 days",significantly decreases the number of OCLs; also recorded: inhibits osteoclastogenesis
same,"number of OCLs (multinucleated TRAP-positive cells) per well, dose dependence",[8]; days 7 and 14 of osteoclast differentiation,decreases the number of OCLs (multinucleated TRAP-positive cells) per well in a dose dependent manner; also recorded: inhibits osteoclastogenesis in a dose-dependent manner
same,acetylated α-tubulin,[9],dose dependent significant increase in the acetylated α-tubulin was observed even in the presence of low doses (0.04 μM)
same,IC50,[10]; Sirtuin 1,> 10 µM
same,IC50,"[10]; sirtuin 1, text (minimal activity)",> 1 µM
same,OBLs function (alkaline phosphatase (ALP) activity),[11],increases OBLs function; also recorded: increases the alkaline phosphate activity
same,"ac-α-tubulin, Western blot",[12],significant increase of ac-α-tubulin in treated compared to control cells
same,acetylation of lysine on Histone H3 and Histone H4,[13],less potent acetylation of lysine on Histone H3 and Histone H4 compared to SAHA
